This is an account of results in US20130281409A1, “Myelin Sheath Fatty Acids that Resolve Neuroinflammation” (priority 2012, published 2013).

Experiment [1] has as its system azPC-mediated inhibition of MBP Ac1-11 specific T cell proliferation. Briefly: Phospholipase inhibitor effect on azPC-mediated inhibition of T cell proliferation. It is filed as cell-based, mouse. The conditions noted are these: about 40 min pre-incubation with inhibitor, 2 μg/ml MBPAc1-11, 30 μg/ml azPC, 48 hours. On the procedure: 5×10^6 cells/ml were pre-incubated in complete RPMI media for about 40 min at 37° C. with 5% CO2, in the presence of the corresponding vehicle (DMSO or 100% ethanol) or a phospholipase inhibitor: OBAA (500 nM, Tocris Bioscience), U 73122 (500 nM, Tocris Bioscience), 525143 (5 μM, EMD, Calbiochem), FKGK 11 (50 μM, Caymen Chemical), YM 26734 (250 μM, Tocris Bioscience), LY 311727 (500 μM, Tocris Bioscience), CAY10590 (200 μM, Caymen Chemical), 525145 (5 μM, EMD, Calbiochem). Afterwards, the splenocytes were plated in triplicate and stimulated in vitro with 2 μg/ml of MBPAc1-11 in the presence of 30 μg/ml azPC for 48 hours. Proliferation response is the ratio of the average triplicate wells of MBP+azPC divided by the average triplicate wells of MBP, or MBP divided by MBP.

Experiment [2] concerns MBPAc1-11-TCR transgenic splenocytes. As to the kind of experiment: MBPAc1-11-specific T-cell proliferation (3H-thymidine incorporation). The following applies: fatty-acid side-chain analogs, various concentrations. It is filed as cell-based, mouse. On the procedure:
(§1) Splenocytes were harvested from mice transgenic for the MBPAc1-11-specific T-cell receptor and stimulated with 2 μg/ml of MBPAc1-11 in the presence of 30 μg/ml of lipid. Lymph nodes and spleens were also harvested from naive C57BL/6 mice, and CD3^+ T-cell enrichment columns (R&D systems) were used to isolate CD3^+ T cells. The purified CD3^+ T cells were stimulated with 5 μg/ml of plate-bound anti-CD3 antibodies and anti-CD28 antibodies in the presence of 30 μg/ml of POPS, PGPC, azPC ester, brain sulfatides, or azPC, 0.25 mM palmitic acid, or 100% ethanol (as the vehicle control). For assessment of proliferation, 1 μCi of ^3H-thymidine was added to each well for the final 18-24 hours of culture, and incorporation of radioactivity was measured by using a Betaplate scintillation counter. Cytokine assays were performed on culture supernatants after 24 (IL-12p40) or 48 hours (IFN-γ, IL-6, and TNF) of culture by using the BD OptEIA™ Mouse ELISA kits (BD Biosciences).
5×10^6 cells/ml were stimulated in vitro with 2 μg/ml of MBPAc1-11 in the presence of various concentrations of palmitic acid (Sigma), other lipids, or 100% Ethanol (vehicle alone).
For assessment of proliferation, 1 μCi of ^3H-thymidine was added to each well for the final 18 hours of culture, and incorporation of radioactivity was quantified using a Betaplate scintillation counter.

Experiment [3] concerns EAE in PLP139-151-immunized SJL/J mice. Briefly: EAE, lipid or palmitic-acid treatment of established disease. Format: in vivo, mouse. On the procedure: Animal experiments were approved by, and performed in compliance with, the National Institute of Health guidelines of the Institutional Animal Care and Use Committee at Stanford University. For induction of EAE, 8- to 12-week-old female SJL/J mice (Jackson Laboratory) were immunized subcutaneously with 100 μg of PLP139-151 emulsified in CFA (Difco Laboratories). Lipid and palmitic-acid treatment: Administration of lipid, palmitic acid, or vehicle was initiated once the PLP139-151-immunized mice developed paralysis (representing clinical EAE) and repeated every other day, for a total of ten separate injections. 100 μg of POPS, PGPC, azPC ester, azPC, palmitic acid, or vehicle (0.05% Tween-20 in PBS) was administered in 0.2 ml intravenously in the tail. EAE treatment with lipid: 100 μg of PGPC or sphingomyelin or vehicle ([…] Tween-20 in PBS) was administered in 0.2 ml intravenously in the tail. Treatment with lipid or vehicle was initiated once the PLP139-151-immunized mice developed paralysis (representing clinical EAE) and repeated 3, 6, 12, and 18 days later, for a total of five separate injections.

In experiment [4] the test system is CD3+ T cells. As to the kind of experiment: Proliferation of anti-CD3/anti-CD28-stimulated purified T cells. The conditions noted are these: anti-CD3 and anti-CD28, 0.25 mM palmitic acid, 48 h. Format: cell-based, mouse. The protocol: Splenocytes were harvested from mice transgenic for the MBPAc1-11-specific T-cell receptor and stimulated with 2 μg/ml of MBPAc1-11 in the presence of 30 μg/ml of lipid. Lymph nodes and spleens were also harvested from naive C57BL/6 mice, and CD3^+ T-cell enrichment columns (R&D systems) were used to isolate CD3^+ T cells. […] Cytokine assays were performed on culture supernatants after 24 (IL-12p40) or 48 hours (IFN-γ, IL-6, and TNF) of culture by using the BD OptEIA™ Mouse ELISA kits (BD Biosciences). Cd1d^−/− T cells: We harvested splenocytes from Cd1d^−/− mice and their wild-type littermates and used CD3^+ T-cell enrichment columns (R&D systems) to isolate T cells. […] Anti-CD3/anti-CD28-stimulated purified T cells: We harvested lymph nodes and spleens from naive C57BL/6 mice and used CD3^+ T-cell enrichment columns (R&D systems) to isolate CD3^+ T cells.

In experiment [5] the test system is CD3+ T cells. As to the kind of experiment: Cytokine production of anti-CD3/anti-CD28-stimulated purified T cells. It is filed as cell-based, mouse. The following applies: anti-CD3 and anti-CD28, 0.25 mM palmitic acid, 48 h. On the procedure: as §1
Anti-CD3/anti-CD28-stimulated purified T cells: We harvested lymph nodes and spleens from naive C57BL/6 mice and used CD3^+ T-cell enrichment columns (R&D systems) to isolate CD3^+ T cells. We then stimulated 1×10^6 cells/ml of T cells with 5 μg/ml of plate-bound anti-CD3 antibodies plus anti-CD28 antibodies in the presence of 30 μg/ml of POPS, PGPC, azPC ester, brain sulfatides, or azPC, […], or 100% ethanol (as the vehicle control).
Cytokine production by cells from the lymph nodes and spleens of PGPC co-immunized mice was measured after 66 hours of stimulation by using the BD OptEIA™ Mouse IFN-γ ELISA kit (BD Biosciences). Cytokine assays for the anti-CD3/anti-CD28 antibody-stimulated T cells and PLP139-151-stimulated splenocytes were performed on culture supernatants after 48 hours of stimulation using the BD OptEIA™ Mouse IL-6, IFN-γ, and TNF alpha ELISA kits (BD Biosciences) and the Mouse IL-17 DuoSet ELISA Development kit (R&D Systems).

In experiment [6] the test system is CD3+ T cells (gated on CD4+ T cells). As to the kind of experiment: T-cell apoptosis, Annexin V and 7AAD staining. Format: cell-based, mouse. The following applies: 0.25 mM palmitic acid, anti-CD3 and anti-CD28, 48 h. The protocol: FIG. 5. […] (C) TUNEL staining of brain and spinal-cord tissue from mice immunized with PLP139-151 peptide (to induce EAE) and treated for 12 h with azPC, POPS, or vehicle on day 15 after immunization. […] (D) Quantification of TUNEL-positive infiltrating cells in brain and spinal cord shown in panel (C). Cells were stained according to standard protocols, run on a FACScan flow cytometer (BD Biosciences), and analysed with CellQuest software (BD Immunocytometry Systems). The antibody conjugate used was FITC anti-CD4, clone GK1.5 (BD Pharmingen). 7AAD staining was performed by using the Annexin V-PE Apoptosis Detection Kit I (BD Pharmingen). Cells were stained according to standard protocols, run on a FACScan flow cytometer (BD Biosciences), and analysed with CellQuest software (BD Immunocytometry Systems) or with FlowJo software version 6.3.2 (Tree Star, Inc.).

The subject of experiment [7] is EAE in PLP139-151-immunized SJL/J mice. As to the kind of experiment: EAE, lipid administered prophylactically (co-immunization with PLP139-151). The conditions noted are these: 6 μg/injection; s.c. with PLP139-151 on day 0, i.p. on days 4 and 7. It is filed as in vivo, mouse. The protocol:
Animal experiments were approved by, and performed in compliance with, the National Institute of Health guidelines of the Institutional Animal Care and Use Committee at Stanford University. For induction of EAE, 8- to 12-week-old female SJL/J mice (Jackson Laboratory) were immunized subcutaneously with 100 μg of PLP139-151 emulsified in CFA (Difco Laboratories). Three injections of PGPC (6 μg/mouse/injection) or vehicle (0.05% Tween-20 in PBS) were delivered on days 0, 4, and 7 after immunization with PLP139-151. On day 0, the lipid or vehicle was emulsified together with PLP139-151 in CFA and administered by subcutaneous injection. At subsequent time points, lipid or vehicle was injected intraperitoneally. EAE was assessed as previously described. To induce EAE in SJL/J mice (Jackson Mice), we immunized 8- to 12-week-old female animals subcutaneously with 100 μg of PLP139-151 emulsified in CFA (Difco Laboratories). Prophylactic administration of lipid: Three injections of PGPC or sphingomyelin (6 μg/mouse/injection) or vehicle (0.05% Tween-20 in PBS) were delivered on days 0, 4, and 7 after immunization with PLP139-151. […] Clinical disease was monitored daily using the following scoring system: 0, no disease; 1, limp tail; 2, hind limb weakness; 3, hind limb paralysis; 4, hind limb and forelimb paralysis; 5, death. […]

Experiment [8] has as its system NF-κB and ERK pathways, Bcl-2 family proteins. Briefly: Immunoblot of inflammatory, survival and apoptotic signaling in anti-CD3/anti-CD28-stimulated T cells. Format: cell-based, mouse. The conditions noted are these: 30 μg/ml lipid, 15 min or 24 h. On the procedure: CD3^+ T cells were isolated from the lymph nodes of naïve C57BL/6 mice by using CD3^+ T-cell enrichment columns (R&D systems). […] Cells were washed with ice-cold PBS and lysed in RIPA lysis buffer containing 1X Halt protease and phosphatase inhibitor cocktail (Pierce) with a Dounce homogenizer. Immunoblotting was performed with antibodies against phospho-Bim ([…]), phospho-Bad ([…]), phospho-Bcl-2 ([…]), phospho-IKKα/β (serines 180/181), phospho-p65 ([…]), phospho-ERK1/2 […]), and IκBα from Cell Signaling Technology.

The subject of experiment [9] is EAE in PLP139-151-immunized SJL/J mice. The conditions noted are these: prophylactic regimen, previously tested by the applicant, cited from earlier work.

Where two headings read alike, the source gives them in different places.

Turning to `CCCC[C@H](CCC(=O)O)NC(=O)CCCCCCc1ccccc1` [CAY10950], the “Effect on azPC (azPC-mediated inhibition of MBP-specific T cell proliferation)” value in [1] is given as “Inhibited”.
Regarding `O=C(CCCCc1ccccc1)C(F)(F)C(F)(F)F` [FKGK 11], in experiment [1], the “Effect on azPC (azPC-mediated inhibition of MBP-specific T cell proliferation)” value is reported as “No effect”.
For the compound `CCc1c(CC(N)=O)c2cc(OCCCP(=O)(O)O)ccc2n1Cc1ccccc1` [LY 311727], the “Effect on azPC (azPC-mediated inhibition of MBP-specific T cell proliferation)” value in [1] is “Inhibited”.
For `COc1ccc2c(c1)CC[C@@H]1[C@@H]2CC[C@]2(C)[C@@H](NCCCCCCN3C(=O)C=CC3=O)CC[C@@H]12` [U 73122], the “Effect on azPC (azPC-mediated inhibition of MBP-specific T cell proliferation)” value in [1] is “No effect”.
As to `CCCCCCCCCCCC(=O)c1c(O)c(C(=O)CCCCCCCCCCC)c(O)c(C2CC(c3ccc(O)cc3)Oc3cc(O)ccc32)c1O` (stereo not drawn) [YM 26734], in [1], the “Effect on azPC (azPC-mediated inhibition of MBP-specific T cell proliferation)” value was “Inhibited”.
In the case of `CCCCCCCC(=O)OC` [methyl octanoate], the “concentration at which T-cell proliferation was suppressed” value (“concentration” for short) in experiment [2] stood at 10 mM.
`CCCCCCCC(=O)O` [octanoic acid]: the “concentration” value in [2] amounted to 5 mM.
Take `CCCCCCCCCCCCCCCC(=O)O` [palmitic acid]: in experiment [3] (100 μg i.v. every other day, then stopped), the “EAE course after treatment was halted” value is on record as “disease relapsed”. Besides, the “EAE severity, established disease” value in experiment [3] (100 μg i.v. once paralysis developed, every other day, ten injections) is recorded as “attenuated EAE”. Moreover, the “concentration” value in experiment [2] was determined as 0.1 mM. Also, in [4], the T-cell proliferation entry is reported as “suppressed T-cell proliferation as effectively as the phospholipids”. In [5], the “T-cell production of IFN-γ” value was “suppressed”, the “T-cell production of IL-6” value is “suppressed”, the “T-cell production of IL-17” value is listed as “suppressed” and the “T-cell production of TNF” value is “suppressed”. Moreover, the T-cell apoptosis result in [6] is on record as “induced T-cell apoptosis”.
Turning to Sphingomyelin [reference compound], the “EAE severity (clinical score)” value in experiment [7] is “attenuated EAE”. For the same compound, in [3] (100 μg i.v. from disease onset (10 days after immunization), five injections), the “EAE severity, established disease” value was “exacerbated EAE”.
Take sulfatide [reference compound]: in experiment [8], the “CD3/CD28-induced activation of the NF-κB and ERK pathways” value was “neither inhibited”. The EAE severity entry in [9] is “exacerbated EAE”; in [9] (listed as sulfatides), “worsened EAE”.
